How the values were obtained:
Test in all cases: relative viability (nuclei count vs DMSO), 5 days (fraction); higher = more cells survive
[1] = compound: CCN(CC)CCNC(=O)c1c(C)[nH]c(/C=C2\C(=O)Nc3ccc(F)cc32)c1C [Sunitinib] + C[C@@H](Oc1cc(-c2cnn(C3CCNCC3)c2)cnc1N)c1c(Cl)ccc(F)c1Cl [Crizotinib] (partner 1 µM)
Summary of the method: (§1)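 Relative viability was taken as the ratio of nuclei in treated wells to nuclei in vehicle wells. Lung cancer cell lines in 1536-well plates received compounds by pin tool one day after seeding, either one drug alone or a fixed anchor-drug dose plus five library-drug doses (not always all listed) in √10 steps. Nuclei were counted on 4× images after 5 days of treatment, and values are medians of duplicate plates.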

[2] = compound: CCN(CC)CCNC(=O)c1c(C)[nH]c(/C=C2\C(=O)Nc3ccc(F)cc32)c1C [Sunitinib] + Cc1nc(Nc2ncc(C(=O)Nc3c(C)cccc3Cl)s2)cc(N2CCN(CCO)CC2)n1 [Dasatinib] (partner 0.075 µM)
Summary of the method: as §1

[3] = compound: CCN(CC)CCNC(=O)c1c(C)[nH]c(/C=C2\C(=O)Nc3ccc(F)cc32)c1C [Sunitinib] + CC1(C)CCC(c2ccc(Cl)cc2)=C(CN2CCN(c3ccc(C(=O)NS(=O)(=O)c4ccc(N[C@H](CCN5CCOCC5)CSc5ccccc5)c(S(=O)(=O)C(F)(F)F)c4)cc3)CC2)C1 [Navitoclax] (partner 0.5 µM)
Summary of the method: as §1

[4] = compound: CCN(CC)CCNC(=O)c1c(C)[nH]c(/C=C2\C(=O)Nc3ccc(F)cc32)c1C [Sunitinib] + O=C(CCCCCCC(=O)Nc1ccccc1)NO [Vorinostat] (partner 1 µM)
Summary of the method: as §1

Cell Line	relative viability ([1]; first compound 0.02 µM)	relative viability ([1]; first compound 0.06325 µM)	relative viability ([1]; first compound 0.2 µM)	relative viability ([1]; first compound 0.6325 µM)	relative viability ([1]; first compound 2 µM)	relative viability ([2]; first compound 0.02 µM)	relative viability ([2]; first compound 0.06325 µM)	relative viability ([2]; first compound 0.2 µM)	relative viability ([2]; first compound 0.6325 µM)	relative viability ([2]; first compound 2 µM)	relative viability ([3]; first compound 0.02 µM)	relative viability ([3]; first compound 0.06325 µM)	relative viability ([3]; first compound 0.2 µM)	relative viability ([3]; first compound 0.6325 µM)	relative viability ([3]; first compound 2 µM)	relative viability ([4]; first compound 0.02 µM)	relative viability ([4]; first compound 0.06325 µM)	relative viability ([4]; first compound 0.2 µM)	relative viability ([4]; first compound 0.6325 µM)	relative viability ([4]; first compound 2 µM)
NCI-H2405	0.803	0.868	0.955	0.862	0.889	0.214	0.206	0.224	0.23	0.212	0.985	0.892	0.909	1.14	0.977	1.09	0.991	1.12	1.08	1.04
SK-LU-1	0.902	0.815	0.969	0.884	0.67	0.179	0.185	0.176	0.171	0.161	0.768	0.6	0.796		0.727	0.821	0.7	0.821	0.86	0.657
PC-3 [JPC-3]	1.03	0.943	1.01	1.02	0.984	1.04	0.903	1.19	1.05	0.967	0.843	0.906	0.846	0.879	0.797	0.919	0.805	0.858	0.904	0.928
NCI-H727	0.724	0.832	0.808	0.926	0.738	0.343	0.432	0.472	0.404	0.275	0.433	0.45	0.454	0.523	0.396	1.12	1.22	1.18	1.18	1.25
EKVX	0.966	1.14	1.22		0.958	0.524	0.638	0.605	0.669	0.654	0.608	0.595	1.13		0.968	0.802		0.882	0.806	0.728
RERF-LC-KJ	0.802	0.838	0.934	0.786	0.855	0.768	0.897	0.832	0.821	0.847	0.844	0.899	1.13	0.876	0.977	0.701	0.733	0.674	0.66	0.707
NCI-H1355	0.982	1.08	1.25	1.1	1.12	0.715	0.804	0.943	0.756	0.674	0.841	0.961	0.921	0.923	0.983	0.638	0.75	0.793	0.751	0.678
NCI-H1563	0.833	0.878	0.805	0.946	0.906	0.487	0.505	0.441	0.422	0.489										
NCI-H358	0.722	0.652	0.562	0.642	0.508	0.151	0.187	0.182	0.19	0.174						0.588	0.684	0.79	0.77	0.419
NCI-H1648																0.58	0.465	0.356	0.338	0.442
LCLC-103H	1.01	1.09	1.17	1.05	1.06	0.428	0.527	0.501	0.462	0.589						0.778	0.918	0.868	0.827	0.867
Calu-6	0.711	0.772	0.852	0.932	0.79						0.896	0.772	0.923	0.972	0.914					
SW 900						0.418	0.722	0.634	0.717	0.605						0.516	0.626	0.541	0.604	0.597
NCI-H1299	0.923	0.965	0.991								1.03	1.11	1.05	1.03	1.09					
IA-LM	0.779	0.774	0.982	0.926	1.04						0.767	0.912	0.929	0.872	0.814	0.975	0.864	0.987	0.952	1.03
NCI-H1793						0.397	0.366	0.429	0.444	0.346		0.528	0.438	0.458	0.472		0.867	0.989	0.91	0.825
HCC-44	0.874	0.784	0.937	0.859	0.774						0.96	0.964	1.05	0.946	0.969	1.15	1.09	1.15	1.09	1.14
NCI-H661	1.09	0.987	1	0.978	1.17	0.923	1.12	1.06	1.07	1.1						0.751	0.78	0.826	0.817	0.839
NCI-H522						0.731	1.05	0.899	1.04	0.923						0.831	1.04	0.927	0.922	1.05
ABC-1	1.08	1.12	1.03	1.03	0.739	0.561	0.609	0.495	0.513	0.49						1.22	1.38	1.05	1.09	
NCI-H1703	0.39	0.206	0.238	0.17	0.225						0.621	0.264	0.289	0.254	0.184					
NCI-H1792	0.821	1.03	1.22	0.979	1.01	0.678	0.799	1.02	0.754	0.74	0.664		0.777	0.537	0.66					

— the supplement of paper PMC10307832
